Assay [1] relates to Coxsackie virus type B3 (COX-B3). The assay is described as follows: Anti-Coxsackie virus type B3 (COX-B3) activity, CPE in Vero cells. It is filed as cell-based. As to conditions: Reed-Muench. On the procedure: (§1) With Vero (African green monkey kidney) cells as viral hosts, inhibitory effects of the compounds of present invention on the grades of pathological lesions by coxsackievirus B3 (COX-B3), B6 (COX-B6) viruses in Vero cells were determined. The measured results of viral inhibitory activity of the compounds are shown in Table 3 and Table 4; wherein RBV is the control drug ribavirin. The inhibitory activities of the measured compounds against coxsackievirus B3, B6 were stronger than the control.
(§2) Screening of Anti-B3, B6 Type Coxsackie Viruses (COX-B3, COX-B6) Activity of the Samples
(§3) Prepare stock solutions of COX-B3 (or COX-B6) virus strains as well as tested compounds in DMSO before use. Before tests, dilute the stock solution with culture solution into a certain concentration and then dilute 3 times to make a total of eight dilutions. Use ribavirin (RBV) as positive control. Test procedures are as follows: seed Vero cells into 96-well culture plates, infect with 10^−5 Coxsackie virus of B3 (or B6) type, 24 hours later; adsorb subsequently for 2 hours, then discard the virus solution, add in the sample compounds and the positive control according to the abovementioned dilutions, set cell control wells and virus control wells simultaneously. When the cytopathic effect (CPE) of cells in the virus control wells reach 4+, observe CPE of the cells in each group. Use Reed-Muench method to calculate 50% inhibitory concentration (IC50) of the sample compounds against coxsackie virus B3 (or B6) type.

For assay [2], the system named is Coxsackie virus type B6 (COX-B6). Kind of assay: Anti-Coxsackie virus type B6 (COX-B6) activity, CPE in Vero cells. It is filed as cell-based. The following applies: Reed-Muench. On the procedure: as §1, §2, §3

The values that follow come from patent US20150031686A1, “PHENYL-OXAZOLYL DERIVATIVES, PREPARATION METHOD THEREOF, AND RELATED APPLICATION OF THE PHENYL-OXAZOLYL DERIVATIVES AS AN IMPDH INHIBITOR” (INSTITUTE OF MEDICINAL BIOTECHNOLOGY, CHINESE ACADEMY OF …, priority 2012, published 2015).

In brackets after ≈: the same amount, converted by molar mass.

As to `COc1cc(/N=C/c2cccs2)ccc1-c1cnco1` [Compound 9, N-(thien-2-ylmethylene)-3-methoxy-4-(oxazol-5-yl) aniline], the IC50 in assay [1] and in assay [2] was 12.8 µg/mL (≈ 45.1 µM) each time.

Turning to `COc1ccc2[nH]cc(CNc3ccc(-c4cnco4)c(OC)c3)c2c1` [Compound 52, N-(5-methoxy-1H-indol-3-ylmethyl)-3-methoxy-4-(oxazol-5-yl) aniline], the IC50 in assay [1] is 3.25 µg/mL (≈ 9.3 µM); in assay [2] it was more than 2.47 µg/mL. In the case of `COc1cc(NCc2cccnc2Cl)ccc1-c1cnco1` [Compound 59, N-(2-chloropyridin-3-ylmethyl)-3-methoxy-4-(oxazol-5-yl) aniline], the IC50 in assay [1] worked out at 1.9 µg/mL (≈ 6.02 µM); in assay [2], 1.05 µg/mL (≈ 3.33 µM). `COc1ccc(CNc2ccc(-c3cnco3)c(OC)c2)cn1` [Compound 60, N-(6-methoxy-pyridin-3-ylmethyl)-3-methoxy-4-(oxazol-5-yl) aniline]: the values for the IC50 in assay [1] and in assay [2] were 0.57 µg/mL (≈ 1.83 µM) and 3.15 µg/mL (≈ 10.1 µM), respectively. Consider `COc1cc(/N=C/c2ccc(F)cc2)ccc1-c1cnco1` [Compound 64, N-(4-Fluorophenylmethylidene)-3-methoxy-4-(oxazol-5-yl)-aniline], for which the IC50 came out at 4.28 µg/mL (≈ 14.4 µM) in assay [1] and 17.2 µg/mL (≈ 58.2 µM) in assay [2]. On the same counts, the results for `COc1cc(NN=C(C#N)C#N)ccc1-c1cnco1` [Compound 66] are 1.43 µg/mL (≈ 5.35 µM) and 4.28 µg/mL (≈ 16 µM).

For the molecule `COc1cc(NS(C)(=O)=O)ccc1-c1cnco1` [Compound 68], the IC50 in assay [1] was 1.53 µg/mL (≈ 5.7 µM); in assay [2], 7.41 µg/mL (≈ 27.6 µM).

Regarding `COc1cc(NCc2c3ccccc3cc3ccccc23)ccc1-c1cnco1` [Compound 95, N-(anthracen-9-ylmethyl) 3-methoxy-4-(oxazol-5-yl) aniline], in assay [1], half-maximal inhibition (IC50) required 0.55 µg/mL (≈ 1.45 µM). For `COc1cc(NCc2ccc(CO)o2)ccc1-c1cnco1` [Compound 96], the IC50 in assay [1] is 1.43 µg/mL (≈ 4.76 µM). Consider `CCc1sc(CNc2ccc(-c3cnco3)c(OC)c2)cc1Br` [Compound 97, N-(4-bromo-5-ethylthien-2-ylmethyl) 3-methoxy-4-(oxazol-5-yl) aniline], for which half-maximal inhibition in assay [1] (IC50) required 0.23 µg/mL (≈ 0.585 µM). In assay [1], `COc1cc(NS(=O)(=O)c2cccs2)ccc1-c1cnco1` [Compound 98, N-(thien-2-ylsulfonyl)-3-methoxy-4-oxazole-5-yl aniline] came in with a half-maximal inhibitory concentration (IC50) of 0.88 µg/mL (≈ 2.62 µM). The same measure, in the same setting: next, `COc1cc(NS(=O)(=O)c2cc([N+](=O)[O-])c(Cl)s2)ccc1-c1cnco1` [Compound 99, N-(5-chloro-4-nitro-thien-2-ylsulfonyl)-3-methoxy-4-oxazole-5-yl aniline]: 0.78 µg/mL (≈ 1.88 µM); `COc1cc(NCc2ccc3c(c2)CCO3)ccc1-c1cnco1` [Compound 100, N-(2,3-dihydobenzofuro-5-ylmethyl)-3-methoxy-4-(oxazol-5-yl) aniline]: 0.46 µg/mL (≈ 1.43 µM).

Regarding `COc1cc(NCc2ccc(C(C)=O)s2)ccc1-c1cnco1` [Compound 101, N-(5-acetylthien-2-ylmethyl)-3-methoxy-4-oxazole-5-yl aniline], the IC50 in assay [1] came to 0.48 µg/mL (≈ 1.46 µM). As to `COc1cc(NCc2ccc(SC)s2)ccc1-c1cnco1` [Compound 102, N-(5-methylthiothien-2-ylmethyl)-3-methoxy-4-(oxazol-5-yl) aniline], the midpoint of inhibition in assay [1], the IC50, lay at 0.35 µg/mL (≈ 1.05 µM). On the same count and under the same terms, for `COc1cc(NCc2ccc(N3CCC(O)CC3)s2)ccc1-c1cnco1` [Compound 103] the value was 0.4 µg/mL (≈ 1.04 µM).

Consider `COc1cc(NCc2ccc(-c3ccc(C(F)(F)F)cc3Cl)o2)ccc1-c1cnco1` [Compound 104, N-[5-(2-chloro-4-trifluoromethylphenyl)furan-2-ylmethyl]-3-methoxy-4-oxazol-5-yl aniline], for which, in assay [1], inhibition was half-maximal at 0.45 µg/mL (≈ 1 µM) (IC50). As for `COc1cc(NC/C=C/c2ccoc2)ccc1-c1cnco1` [Compound 105, N-(furan-3-ylpropen-1-yl)-3-methoxy-4-oxazol-5-yl aniline], in assay [1], it took 1.23 µg/mL (≈ 4.15 µM) to reach half-maximal inhibition (IC50).

`COc1cc(NCc2ccc3sccc3c2)ccc1-c1cnco1` [Compound 106, N-(benzothien-5-ylmethyl)-3-methoxy-4-oxazol-5-yl aniline] displayed an IC50 in assay [1] of 0.44 µg/mL (≈ 1.31 µM).
